Data reported in patent US11034654B2, “2,3-dihydroisoindole-1-carboxamides useful as ROR-gamma modulators” (AstraZeneca AB, priority 2017, dated 2021).

Assays:
[1] = biological target: T1, RORγ ligand binding domain (Homo sapiens, UniProt P51449); test: RORγ radioligand competition binding assay (SPA); details: competition with tritiated 2-(4-(ethylsulfonyl)phenyl)-N-(4-(2-(methoxymethyl)phenyl)thiophen-2-yl)acetamide (25 nM), hRORγ LBD
Description: RORγ Radioligand Competition Binding Assay The aim of this assay is to identify compounds which bind to the RORγ ligand binding domain, by competing with tritiated 2-(4-(ethylsulfonyl)phenyl)-N-(4-(2-(methoxymethyl)phenyl)thiophen-2-yl)acetamide. Human RORγ (Ligand Binding Domain (RORγ LBD) was expressed in E. coli (BL21DE3 Star) as a fusion protein: N-6×HN-Avi-GST-TCS-hRORγ LBD (S258-K518) subcloned into pET24a(+). The LBD (258-518) is underlined in the protein sequence: The scintillation proximity assay (SPA) was run in white polystyrene flat-bottom 384-well plates (Greiner, cat. No. 781075). Assays were carried out in 40 μl reaction volumes. Various concentrations of test ligands in 0.4 microlitres of DMSO were added to assay plates using an acoustic liquid dispenser. 4 nM purified N-(HN)6-GST-TCS-hRORγ (258-518) was mixed with 40 micrograms Yttrium oxide (YOx) glutathione SPA imaging beads in assay buffer (20 mM Tris, 150 mM NaCl, 10% Glycerol, 0.25% CHAPS, 1 mM TCEP) prior to adding 30 microlitres to test ligands. Assay plates were incubated for one hour at room temperature before adding 10 microlitres tritiated 2-(4-(ethylsulfonyl)phenyl)-N-(4-(2-(methoxymethyl)phenyl)thiophen-2-yl)acetamide to test plates in assay buffer (final concentration, 25 nM). Test plates were incubated for 16 hours and read using a LEADseeker Multimodality imaging instrument. The raw data was analysed and IC50 and Ki values for the compounds were calculated using Genedata Screener software. Raw data was transformed to % effect using equation 1: Compound % effect=100*[(X−min)/(max−min)], where X represents the normalized value for the compound based on the Min (vehicle) and Max (reference compound) inhibition controls. The concentration of test ligand that inhibited radioligand binding by 50% (i.e., the IC50) was calculated by plotting the % effect versus test ligand concentration and fitting the data using the Genedata Screener Smart fit algorithm. Ki is calculated from the IC50 value using the equation Ki=IC50/1+[L]/Kd) where [L]=25 nmol/L and Kd=17 nmol/L

[2] = test system: human TH17 cells; test: Inhibition of IL-17 release from human TH17 cells; format: cell-based; details: 96 h; isolated human TH17 cells cultured 4 days, IL-17A in supernatant by HTRF; read-out: pIC50 IL-17 release (converted)
Description: Inhibition of IL-17 Release from Human TH17 Cells
This test is designed to screen compounds for their inhibitory effect on the release of IL-17 from isolated and cultured human TH17 cells.
Peripheral blood mononuclear cells (PBMC) were isolated from heparin treated human whole blood from healthy donors by density gradient centrifugation. TH17 cells (CD4+CXCR3−CCR6+) were enriched using a human TH17 Cell Enrichment Kit (Stemcell Technologies) according to the manufacturer's protocol. The isolated TH17 cells were activated with aCD3aCD28 beads (MACS Miltenyi) and cultured in X-Vivo15 medium (Lonza) supplemented with L-glutamine, β-mercaptoethanol and a cytokine cocktail consisting of; IL-2, IL-23, IL-1β, IL-6, TGF-β. Cells were seeded at 8000 cells/well in a 384-plate (Corning, #3707) in the presence of compounds or DMSO and cultured for 4 days (37° C., 5% CO2). On day 4 supernatants were collected and IL-17A was measured using a Human IL-17 HTRF Assay kit (Cisbio Bioassays) according to the manufacturer's protocol. The IC50 values for the tested compounds was calculated using Genedata Screener® software (Genedata) using the following calculation method; Compound % effect=100*[(X−min)/(max−min)], where X represents the normalized value for the compound based on the Min (DMSO) and Max (compound 3-(1,3-benzodioxol-5-yl)-1-(3,5-dimethylpiperidin-1-yl)-3-(2-hydroxy-4,6-dimethoxyphenyl)propan-1-one at 10 μM, described in J. R. Hu et al. ACS Med. Chem. Lett. 2013, 4, 79-84) inhibition controls. Results

[3] = biological target: T1, RORγ ligand binding domain; test: RORγ co-factor recruitment assay (FRET); format: biochemical; design: made in house; host or cells: E. coli BL21DE3 Star; details: inhibition of recruitment of SRC-1 peptide (NCOA1_677-700) to hRORγ LBD, HTRF read-out
Description: RORγ Co-Factor Recruitment Assay A high throughput coactivator binding assay for the identification of inverse agonists of the recruitment of peptide SRC-1 (NCOA1_677-_700) to the RORγ ligand binding domain was established. The ligand binding domain (LBD) of human RORγ was expressed in E. coli (BL21DE3 Star) as a fusion protein: N-6×HN-MBP-Avi-TCS-hRORγLBD(P260-K518) subcloned into pET24a(+). The LBD (P260-K518) is underlined in the protein sequence: The assay was run in black 384 well plates (Greiner cat no: 784900). Various concentrations of test ligands in 0.1 microlitres DMSO were dispensed to assay plates using an Echo acoustic dispenser. Two pre-mixes were prepared and incubated for 1 h at room temp in the dark. Pre-mix 1 comprised 100 nM Protein (Biotinylated HN-Avi-MBP-TCS-hRORγ (258-518)) and 60 nM Streptavidin APC in assay buffer, 50 mM MOPS pH7.4, 50 mM KF, 0.003% (w/v) CHAPS, 10 mM DTT and 0.01% (w/v) BSA and pre-mix 2 comprised 160 nM biotinylated SRC-1 peptide (NCOA1-677-700) and 20 nM Europium-W8044 labelled Streptavidin in assay buffer. Five microlitres of pre-mix 2 was dispensed to assay plates containing 0.1 microlitres of test compound and was incubated for 15 min prior to adding five microlitres of pre-mix 1. Plates were incubated at rt for 1 hour in the dark, prior to reading in a Pherastar multi-mode plate reader using HTRF filter set (ex 320, em 612 and 665). The FRET signal at 665 nm was divided by the signal at 612 nm and multiplied by 10,000 to generate a signal ratio value for each well. The raw data was transformed to % effect using the equation: Compound % effect=100*[(X−min)/(max−min)], where X represents the normalized value for the compound based on the Min (vehicle) and Max (reference compound) inhibition control. The concentration of test ligand that inhibited the activity by 50% (i.e., the IC50) was calculated by plotting the % effect versus test ligand concentration and fitting the data using the Genedata Screener Smart fit algorithm.

| IC50 [1] [nM] | IC50 [2] [nM] | IC50 [3] [nM] | SMILES |
| --- | --- | --- | --- |
| 200 | 100 | 126 | CS(=O)(=O)c1ccc2c(c1)CNC2C(=O)Nc1ccc(C(C#N)(C(F)(F)F)C(F)(F)F)cc1 (stereo not drawn) [Example 1, N-[4-(2-Cyano-1,1,1,3,3,3-hexafluoropropan-2-yl)phenyl]-5-(methylsulfonyl)-2,3-dihydro-1H-isoindole-1-carboxamide] |
| 15.8 | 10 | 126 | CC(=O)N1Cc2cc(S(C)(=O)=O)ccc2C1C(=O)Nc1ccc(C(C#N)(C(F)(F)F)C(F)(F)F)cc1 (stereo not drawn) [Example 2, 2-Acetyl-N-[4-(2-cyano-1,1,1,3,3,3-hexafluoropropan-2-yl)phenyl]-5-(methylsulfonyl)-2,3-dihydro-1H-isoindole-1-carboxamide] |
| 20 | 15.8 | 251 | COC1(C(=O)N2Cc3cc(S(C)(=O)=O)ccc3C2C(=O)Nc2ccc(C(C#N)(C(F)(F)F)C(F)(F)F)cc2)CC1 (stereo not drawn) [Example 3, N-[4-(2-Cyano-1,1,1,3,3,3-hexafluoropropan-2-yl)phenyl]-2-[(1-methoxycyclopropyl)carbonyl]-5-(methylsulfonyl)-2,3-dihydro-1H-isoindole-1-carboxamide] |
| 12.6 | 7.94 | 63.1 | CNC(=O)N1Cc2cc(S(C)(=O)=O)ccc2C1C(=O)Nc1ccc(C(C#N)(C(F)(F)F)C(F)(F)F)cc1 (stereo not drawn) [Example 4, N^1-[4-(2-Cyano-1,1,1,3,3,3-hexafluoropropan-2-yl)phenyl]-N^2-methyl-5-(methylsulfonyl)-1,3-dihydro-2H-isoindole-1,2-dicarboxamide] |
| 12.6 | 10 | 50.1 | CS(=O)(=O)c1ccc2c(c1)CN(C(=O)CO)C2C(=O)Nc1ccc(C(C#N)(C(F)(F)F)C(F)(F)F)cc1 (stereo not drawn) [Example 5, N-[4-(2-Cyano-1,1,1,3,3,3-hexafluoropropan-2-yl)phenyl]-2-(hydroxyacetyl)-5-(methylsulfonyl)-2,3-dihydro-1H-isoindole-1-carboxamide] |
| 7.94 | 25.1 | 100 | N#CC(c1ccc(NC(=O)C2NCc3cc(S(=O)(=O)CC4CC4)ccc32)cc1)(C(F)(F)F)C(F)(F)F (stereo not drawn) [Example 12, N-[4-(2-Cyano-1,1,1,3,3,3-hexafluoropropan-2-yl)phenyl]-5-[(cyclopropylmethyl)sulfonyl]-2,3-dihydro-1H-isoindole-1-carboxamide] |
| 6.31 | 5.01 | 63.1 | CC(=O)N1Cc2cc(S(=O)(=O)CC3CC3)ccc2C1C(=O)Nc1ccc(C(C#N)(C(F)(F)F)C(F)(F)F)cc1 (stereo not drawn) [Example 13, 2-Acetyl-N-[4-(2-cyano-1,1,1,3,3,3-hexafluoropropan-2-yl)phenyl]-5-[(cyclopropylmethyl)sulfonyl]-2,3-dihydro-1H-isoindole-1-carboxamide] |
| 5.01 | 2.51 | 39.8 | CCS(=O)(=O)c1ccc2c(c1)CN(C(C)=O)C2C(=O)Nc1ccc(C(C#N)(C(F)(F)F)C(F)(F)F)cc1 (stereo not drawn) [Example 14, 2-Acetyl-N-[4-(2-cyano-1,1,1,3,3,3-hexafluoropropan-2-yl)phenyl]-5-(ethylsulfonyl)-2,3-dihydro-1H-isoindole-1-carboxamide] |
| 5.01 | 3.98 | 39.8 | CC(=O)N1Cc2cc(S(C)(=O)=O)ccc2C1C(=O)Nc1ccc(C(N2CCCC2)(C(F)(F)F)C(F)(F)F)cc1 (stereo not drawn) [Example 15, 2-Acetyl-N-{4-[1,1,1,3,3,3-hexafluoro-2-(pyrrolidin-1-yl)propan-2-yl]phenyl}-5-(methylsulfonyl)-2,3-dihydro-1H-isoindole-1-carboxamide] |
| 31.6 | 20 | 100 | COCCNC(c1ccc(NC(=O)C2c3ccc(S(C)(=O)=O)cc3CN2C(C)=O)cc1)(C(F)(F)F)C(F)(F)F (stereo not drawn) [Example 17, 2-Acetyl-N-(4-{1,1,1,3,3,3-hexafluoro-2-[(2-methoxyethyl)amino]propan-2-yl}phenyl)-5-(methylsulfonyl)-2,3-dihydro-1H-isoindole-1-carboxamide] |
| 50.1 | 25.1 | 200 | COC1(CNC(c2ccc(NC(=O)C3c4ccc(S(C)(=O)=O)cc4CN3C(C)=O)cc2)(C(F)(F)F)C(F)(F)F)CC1 (stereo not drawn) [Example 18, 2-Acetyl-N-[4-(1,1,1,3,3,3-hexafluoro-2-{[(1-methoxycyclopropyl)methyl]amino}propan-2-yl)phenyl]-5-(methylsulfonyl)-2,3-dihydro-1H-isoindole-1-carboxamide] |
| 126 | 50.1 | 100 | CC(=O)N1Cc2cc(S(C)(=O)=O)ccc2C1C(=O)Nc1ccc(C(NC2COC2)(C(F)(F)F)C(F)(F)F)cc1 (stereo not drawn) [Example 19, 2-Acetyl-N-{4-[1,1,1,3,3,3-hexafluoro-2-(oxetan-3-ylamino)propan-2-yl]phenyl}-5-(methylsulfonyl)-2,3-dihydro-1H-isoindole-1-carboxamide] |
| 100 | 50.1 | 100 | CC(=O)N1Cc2cc(S(C)(=O)=O)ccc2C1C(=O)Nc1ccc(C(NC2CCOCC2)(C(F)(F)F)C(F)(F)F)cc1 (stereo not drawn) [Example 20, 2-Acetyl-N-{4-[1,1,1,3,3,3-hexafluoro-2-(tetrahydro-2H-pyran-4-ylamino)propan-2-yl]phenyl}-5-(methylsulfonyl)-2,3-dihydro-1H-isoindole-1-carboxamide] |
| 316 | 100 | 126 | CC(=O)N1Cc2cc(S(C)(=O)=O)ccc2C1C(=O)Nc1ccc(C(NCCO)(C(F)(F)F)C(F)(F)F)cc1 (stereo not drawn) [Example 21, 2-Acetyl-N-(4-{1,1,1,3,3,3-hexafluoro-2-[(2-hydroxyethyl)amino]propan-2-yl}phenyl)-5-(methylsulfonyl)-2,3-dihydro-1H-isoindole-1-carboxamide] |
